Earlier results on one compound are cited in US12109304B1, “Oral patch for treating mouth ulcers” (Xiamen LP Pharmaceutical Co., Ltd., priority 2023, dated 2024).

On to `CCCCNc1ccc(C(=O)OCCN(C)C)cc1.Cl` [Tetracaine hydrochloride], for which the “Solubility in ethanol / alcohol” value (ethanol (alcohol)) is given as “soluble”. The Solubility in water entry (water) is given as “soluble”.
